In patent publication US10058533B2, “Pharmaceutical composition containing Ginkgolide B and Xa factor inhibitor, preparation method thereof and use thereof” (CHENGDU BAIYU PHARMACEUTICAL CO., LTD, priority 2014, dated 2018):

Experiments:
factor Xa [1] = assay: Anti-coagulation factor Xa activity in vitro (chromogenic substrate assay); assay type: biochemical, rabbit
Protocol: A chromogenic substrate assay was adopted, and plasma anti-Xa activity was determined on a microplate reader according to a kit specification and reference documents.

factor Xa [2] = assay: Plasma anti-factor Xa activity, rabbit wound-limb deep venous thrombosis forming model; assay type: in vivo
Protocol: (§1) Eight were taken as control group and the rest were treated by a striking device. Striking area was a round surface with the diameter of 1.5 cm, the wounding energy was calculated according to Ep=mgh, and the energy of each striking of the iron rod is 7.5 J.
(§2) Specifically: the rabbit was anesthetized by intravenous injection of 3% pentobarbital sodium at ear edge with the dose of 1 ml/kg. The rabbit was kept laying down at right side prostrate position and the left thigh was set on the striking platform. Found the trochanter of the left femur and set the striking head attached to area from the trochanter to the 1.5 cm below. The self-made striking device was used for striking the outer side of the thigh near-end, and the plaster was used for fixing the left limb on the hip/knee-bending area. When the plaster bandage was applied and the right hip was examined to move freely, the rabbit was kept to lay down until solidification. After the model establishment, the animal was allowed to drink water normally and was fed with granular food. No anticoagulant or antibiotic was used.
(§3) Animals were grouped after modeling. The drug was fed according to table 4 via oral gavage, once a day for 7 days continuously.
(§4) At 0.5, 1.0, 2.0, 3.0 and 4.0 h after the first administration, blood was taken from ear central artery. Plasma was separated and aPPT, PT and the anti-factor Xa activity were determined on an automatic coagulation detector.

[3] = test system: PAF (Platelet activating factor); assay: Plasma PAF content by ELISA, rabbit wound-limb deep venous thrombosis forming model; assay type: in vivo; conditions: for PAF content (x ± SD): rabbit wound-limb deep venous thrombosis model, *p<0.05, **p<0.01, ***p<0.001 vs model group
Protocol: as §2, with “Eight were taken as control group and the rest were treated by a striking device. […] Specifically:” for “Specifically:”, “Found the trochanter of the left femur and set the striking head attached to area from the trochanter to the 1.5 cm below.” left out, “used. Animals were grouped after modeling. The drug was fed according to table 4 via oral gavage, once a day for 7 days continuously. At 0.5, 1.0, 2.0, 3.0 and 4.0 h after the first administration, blood was taken from ear central artery. Plasma was separated and the content of PAF was determined by ELISA.” for “used.”

[4] = test system: coagulation function (aPTT); assay: aPTT of coagulation function, rabbit wound-limb deep venous thrombosis forming model; assay type: in vivo; conditions: for aPPT: 5 mg/kg i.g., x ± SD
Protocol: as §1, §2, §3, §4

[5] = test system: coagulation function (PT); assay: PT of coagulation function, rabbit wound-limb deep venous thrombosis forming model; assay type: in vivo; conditions: 5 mg/kg i.g., x ± SD
Protocol: as §1, §2, §3, §4

[6] = test system: venous thromboembolism (VTE); conditions: cited from earlier work
[7] = in vivo; cited from earlier work
[8] = plasma, 5 mg/kg i.g., 0.5 h after administration, x ± SD
[9] = plasma, 5 mg/kg i.g., 1 h after administration, x ± SD
[10] = plasma, 5 mg/kg i.g., 2 h after administration, x ± SD
[11] = plasma, 5 mg/kg i.g., 3 h after administration, x ± SD
[12] = plasma, 5 mg/kg i.g., 4 h after administration, x ± SD

Compound | anti-factor Xa activity (factor Xa [1]) | anti-factor Xa activity (factor Xa [2]; [8]) | anti-factor Xa activity (factor Xa [2]; [9]) | anti-factor Xa activity (factor Xa [2]; [10]) | anti-factor Xa activity (factor Xa [2]; [11]) | anti-factor Xa activity (factor Xa [2]; [12]) | PAF content (x ± SD) ([3]; 1 h after administration) | PAF content (x ± SD) ([3]; 3 h after administration) | PAF content compared to model group ([3]; 4 h after administration) | aPPT ([4]; 0.5 h after administration) | aPPT ([4]; 1 h after administration) | aPPT ([4]; 2 h after administration) | aPPT ([4]; 3 h after administration) | aPPT ([4]; 4 h after administration) | aPTT compared with model group ([4]; 1 h after administration) | PT ([5]; 0.5 h after administration) | PT ([5]; 1 h after administration) | PT ([5]; 2 h after administration) | PT ([5]; 3 h after administration) | PT ([5]; 4 h after administration) | further results
COc1ccc(-n2nc(C(N)=O)c3c2C(=O)N(c2ccc(N4CCCCC4=O)cc2)CC3)cc1 [Apixaban] | 1.07 IU/ml | 0.16 ± 0.10 IU/ml | 0.26 ± 0.04 IU/ml | 0.25 ± 0.10 IU/ml | 1.22 ± 0.22 IU/ml | 1.12 ± 0.15 IU/ml | 1543.57 ± 239.95 ng/L | 1865.71 ± 371.23 ng/L | extremely significant decrease | 19.05 ± 6.17 s | 24.26 ± 7.89 s | 23.94 ± 5.49 s | 31.71 ± 8.53 s | 29.21 ± 11.35 s | no obvious extension | – | – | – | – | – | anti-factor Xa activity (factor Xa [2]; 0.5 h-4 h after administration): extremely significant difference; PAF content (x ± SD) ([3]; 2 h after administration): 1117.86 ± 231.52 ng/L
CN1CCc2nc(C(=O)N[C@@H]3C[C@@H](C(=O)N(C)C)CC[C@@H]3NC(=O)C(=O)Nc3ccc(Cl)cn3)sc2C1 [Edoxaban] | – | – | – | – | – | – | 1236.72 ± 301.62 ng/L | 1623.43 ± 256.35 ng/L | – | 26.77 ± 7.65 s | 25.01 ± 9.52 s | 33.63 ± 5.45 s | 36.47 ± 9.12 s | 27.20 ± 6.31 s | no obvious extension | 6.73 ± 0.15 s | 6.14 ± 0.26 s | 6.28 ± 0.42 s | 6.45 ± 0.65 s | 6.42 ± 0.34 s | –
CC1C(=O)OC2C(O)C34C5CC(C(C)(C)C)C36C(OC(=O)C6O)OC4(C(=O)O5)C12O (centres unmarked) [Ginkgolide B] | 0.57 IU/ml | 0.08 ± 0.07 IU/ml | 0.10 ± 0.10 IU/ml | 0.35 ± 0.22 IU/ml | 0.74 ± 0.15 IU/ml | 0.65 ± 0.12 IU/ml | 1255.71 ± 300.73 ng/L | 1656.43 ± 259.36 ng/L | – | 25.89 ± 8.15 s | 30.65 ± 6.79 s | 25.83 ± 5.96 s | 34.30 ± 6.56 s | 31.92 ± 7.77 s | obviously extended | 6.76 ± 0.32 s | 6.79 ± 0.27 s | 6.75 ± 0.36 s | 6.72 ± 0.24 s | 6.68 ± 0.23 s | anti-factor Xa activity (factor Xa [2]; 0.5 h-4 h after administration): increased with time; PAF content compared to model group ([3]; 2 h after administration): decreased significantly
CN(C)Cc1nccn1-c1ccc(NC(=O)c2cc(C(F)(F)F)nn2-c2ccc3onc(N)c3c2)c(F)c1 [Razaxaban] | 0.86 IU/ml | 0.20 ± 0.14 IU/ml | 0.18 ± 0.05 IU/ml | 0.23 ± 0.08 IU/ml | 1.31 ± 0.30 IU/ml | 1.32 ± 0.09 IU/ml | 1501.29 ± 131.10 ng/L | 1641.26 ± 242.32 ng/L | decreased significantly | 20.13 ± 6.74 s | 26.23 ± 8.43 s | 22.33 ± 4.46 s | 35.75 ± 8.68 s | 29.65 ± 9.72 s | no obvious extension | 6.71 ± 0.25 s | 7.41 ± 0.51 s | 6.47 ± 0.25 s | 6.47 ± 0.41 s | 6.70 ± 0.25 s | PAF content (x ± SD) ([3]; 0.5 h after administration): 889.42 ± 326.32 ng/L; VTE occurrence rate compared with enoxaparin ([6]; patients taking Razaxaban 25 mg, total knee replacement): significantly lower; occurrence rate of large bleeding compared with enoxaparin ([6]; patients taking Razaxaban 25 mg): similar; large bleeding compared with Enoxaparin ([6]; patients taking Razaxaban 50-100 mg): more likely to have large bleeding
O=C(NC[C@H]1CN(c2ccc(N3CCOCC3=O)cc2)C(=O)O1)c1ccc(Cl)s1 [Rivaroxaban] | 0.54 IU/ml | 0.37 ± 0.09 IU/ml | 0.31 ± 0.13 IU/ml | 0.18 ± 0.05 IU/ml | 1.32 ± 0.16 IU/ml | 1.38 ± 0.18 IU/ml | 1484.29 ± 129.00 ng/L | 1671.43 ± 236.95 ng/L | extremely significant decrease | 27.89 ± 7.97 s | 32.01 ± 9.31 s | 34.63 ± 5.57 s | 35.92 ± 10.85 s | 29.20 ± 6.32 s | obviously extended | 6.76 ± 0.30 s | 7.20 ± 0.96 s | 6.90 ± 0.34 s | 6.81 ± 0.22 s | 6.70 ± 0.33 s | anti-factor Xa activity (factor Xa [2]; 0.5 h-4 h after administration): extremely significant difference; PAF content (x ± SD) ([3]; 0.5 h after administration): 886.43 ± 314.24 ng/L
Otamixaban | 1.03 IU/ml | 0.19 ± 0.04 IU/ml | 0.25 ± 0.10 IU/ml | 0.26 ± 0.14 IU/ml | 1.25 ± 0.12 IU/ml | 1.24 ± 0.06 IU/ml | 1526.56 ± 212.31 ng/L | 1745.52 ± 356.26 ng/L | decreased significantly | 21.67 ± 9.42 s | 25.71 ± 7.68 s | 25.61 ± 6.75 s | 34.62 ± 7.59 s | 30.16 ± 9.37 s | no obvious extension | 6.58 ± 0.45 s | 6.74 ± 0.26 s | 6.52 ± 0.43 s | 6.62 ± 0.42 s | 7.82 ± 0.31 s | excretion through kidney [7]: less than 25%; PAF content (x ± SD) ([3]; 2 h after administration): 1123.45 ± 224.51 ng/L
